From PMC6891756, “Synthesis and Biological Evaluation of Novel Aminochalcones as Potential Anticancer and Antimicrobial Agents” (Molecules, 2019)
Converted amounts (≈) assume the structure as drawn. Where two headings read alike, the source gives them in different places.

Experiments:
[1] = test system: Escherichia coli ATCC10536; assay: Microbial growth curve screening, E. coli; format: cell-based; conditions: 0.1% (w/v), OD at 560 nm, control 1.61
Protocol: (§1) The antimicrobial screening tests were performed on two strains of bacteria: E. coli ATCC10536 and S. aureus DSM799, strain of yeast C. albicans DSM1386 and three strains of fungi: F. linii KB-F1, A. alternata CBS1526 and A. niger DSM1957. All microorganisms were obtained from the collection of the Faculty of Biotechnology and Food Microbiology, Wrocław University of Environmental and Life Sciences. The bacteria were cultured in nutrient broth (Biocorp, Warsaw, Poland), yeast and fungi in YM medium (3 g yeast extract, 3 g malt extract, 5 g bacteriological peptone and 10 g of glucose dissolved in 1 L of distilled water). The tests were carried out in 100-well microtiter plates. To each well 280 μL of culture medium, 10 μL of microorganism suspension and 10 μL of aminochalcone (1–18) dissolved in dimethyl sulfoxide (3% (w/v)) were added. The final concentration of the tested compound (1–18) was 0.1% (w/v). Each experiment were performed in 3 replications. The optical density of the cell suspension was measured on Bioscreen C (Automated Growth Curve Analysis System Lab System, Vantaa, Finland) at 560 nm automatically, at regular intervals of 30 min for 2–3 days. Cell cultures were maintained at 28 °C on a continuous shaker. To prepare the growth curves for each strain, the mean values of the absorbance in a function of time were used. The resulting antimicrobial activity was expressed as the increase of optical density (ΔOD) and was compared to that of the control cultures in the medium supplemented with dimethyl sulfoxide and also with reference substances: oxytetracycline (against bacteria), cycloheximide (against yeast) and nystatin (against fungi) (Sigma Aldrich).

[2] = test system: Staphylococcus aureus DSM799; assay: Microbial growth curve screening, S. aureus; format: cell-based; conditions: 0.1% (w/v); for ∆OD S. aureus: OD at 560 nm, control 1.67; for Lag-phase S. aureus: control 2.5 h
Protocol: as §1

[3] = test system: Staphylococcus aureus DSM799; assay: MIC evaluation (broth method), S. aureus; format: cell-based; conditions: 48–72 h, read-out: Minimal inhibitory concentration S. aureus
Protocol: (§2) Sterile 96-well microtiter plates (Sarstedt) with nutrient broth (for bacteria) (Biocorp) or YM medium (for yeast and filamentous fungi) were inoculated with a standardized cell suspension of bacteria and yeast or fungal spores of 10^5 cell·mL^−1, and supplemented with aminochalcones dissolved in DMSO. […] All analysis were conducted in triplicates. The plates were incubated at 30 °C (bacteria and yeast) or 25 °C (filamentous fungi) for 48–72 h. The results were measured with the Spark® Multimode Microplate Reader (Tecan, Männedorf, Switzerland) at a 560 nm wavelength. The minimal inhibitory concentration was defined as the lowest concentration of a tested compound that completely restricted the growth of the microorganism. In order to verify the obtained results, microbial cultures subjected to each concentration of aminochalcone were inoculated onto nutrient agar or YM plates and incubated as described above. The lack of growth on agar plate was a confirmation of the MIC of the tested compound. The resulting MIC values were compared with the reference substances: oxytetracycline (against bacteria), cycloheximide (against yeast) and nystatin (against fungi) (Sigma Aldrich).

[4] = test system: Escherichia coli ATCC10536; assay: MIC evaluation (broth method), E. coli; format: cell-based; conditions: 48–72 h, read-out: Minimal inhibitory concentration E. coli
Protocol: as §2

[5] = test system: Candida albicans DSM1386; assay: MIC evaluation (broth method), C. albicans; format: cell-based
Protocol: as §2

[6] = test system: Candida albicans DSM1386; assay: Microbial growth curve screening, C. albicans; format: cell-based; conditions: 0.1% (w/v); for ∆OD C. albicans: OD at 560 nm, control 1.58; for Lag-phase C. albicans: control 3.0 h
Protocol: as §1

[7] = test system: Fusarium linii KB-F1; assay: Microbial growth curve screening, F. linii; format: cell-based; conditions: 0.1% (w/v); for ∆OD F. linii: OD at 560 nm, control 1.95; for Lag-phase F. linii: control 13.5 h
Protocol: as §1

[8] = test system: Aspergillus niger DSM1957; assay: Microbial growth curve screening, A. niger; format: cell-based; conditions: 0.1% (w/v); for ∆OD A. niger: OD at 560 nm, control 2.14; for Lag-phase A. niger: control 11.0 h
Protocol: as §1

[9] = test system: Alternaria alternata CBS1526; assay: Microbial growth curve screening, A. alternata; format: cell-based; conditions: 0.1% (w/v); for ∆OD A. alternata: OD at 560 nm, control 1.86; for Lag-phase A. alternata: control 16.5 h
Protocol: as §1

[10] = test system: LoVo; assay: SRB antiproliferative assay, LoVo; format: cell-based, human; conditions: Homo sapiens, LoVo, 48 h, 1–100 µg·mL^−1, ND = not detected in the tested concentration range
Protocol: (§3) Anticancer activity was evaluated using the sulforhodamine B assay (SRB) on four different human colon cancer cell lines: HT-29, LS180, LoVo and LoVo/DX and green monkey kidney fibroblasts COS7 (ATCC, Manassas, VA, USA). Cell lines HT-29 and COS7 were cultured in α-MEM medium (IIET PAS, Wrocław, Poland), LS180 in OptiMEM medium (IIET PAS), LoVo and LoVo/DX in mixture of α-MEM and OptiMEM medium (1:1 (v:v)). Each culture medium was supplemented with 10% fetal bovine serum, 2 mM glutamine, 100 μg·mL^−1 penicillin, 100 μg·mL^−1 streptomycin and 0.25 μg·mL^−1 amphotericin (all supplements purchased from Gibco (Paisley, UK). Cells were incubated at 37 °C, 5% CO2 in HeraCELL 150i incubator (Thermo Fisher Scientific, Waltham, MA, USA).
(§4) For the SRB assay, cells were seeded onto 96-well plates (Sarstedt, Nümbrecht, Germany) at a density of 5·10^3/well and cultured overnight as described above. Then, the growth medium was gently removed and replaced with fresh medium, supplemented with aminochalcone derivatives in the concentration ranging from 1 µg·mL^−1 to 100 µg·mL^−1. All stock solutions were prepared in DMSO at a concentration of 10 mg·mL^−1. Cells were incubated for 48 h and then the SRB assay was performed as described previously. Each experiment was performed in quadruplicate. The final results were reported as the IC50 values calculated for three independent experiments. Cisplatin (Acros Organics, Waltham, MA, USA) and doxorubicin (Fisher BioReagents, Waltham, MA, USA) were used as positive controls of the test.

[11] = SRB assay, normal fibroblasts COS7; format: cell-based, green monkey; conditions: green monkey, COS7 kidney fibroblasts (normal cell line), ND = not detected in the tested concentration range
Protocol: as §3, §4

[12] = test system: LoVo/DX; assay: SRB antiproliferative assay, LoVo/DX; format: cell-based, human; conditions: Homo sapiens, LoVo/DX, 48 h, 1–100 µg·mL^−1, ND = not detected in the tested concentration range
Protocol: as §3, §4

[13] = test system: HT-29; assay: SRB antiproliferative assay, HT-29; format: cell-based, human; conditions: Homo sapiens, HT-29; SRB, 48 h, 1–100 µg·mL^−1; ND = not detected in the tested concentration range
Protocol: as §3, §4

[14] = test system: LS180; assay: SRB antiproliferative assay, LS180; format: cell-based, human; conditions: Homo sapiens, LS180, 48 h, 1–100 µg·mL^−1, ND = not detected in the tested concentration range
Protocol: as §3, §4

CN(C)[C@@H]1C(O)=C(C(N)=O)C(=O)[C@@]2(O)C(O)=C3C(=O)c4c(O)cccc4[C@@](C)(O)[C@H]3[C@H](O)[C@@H]12 [Oxytetracycline, reference compound]
∆OD E. coli [1]: 0.0
∆OD S. aureus [2]: 0.0
MIC [3]: 0.125 µg/mL (≈ 0.271 µM)
MIC [4]: 0.5 µg/mL (≈ 1.09 µM)

C[C@@H]1C[C@@H]([C@H](O)CC2CC(=O)NC(=O)C2)C(=O)[C@@H](C)C1 [Cycloheximide, reference compound]
MIC ([5]; DSM1386, read-out: Minimal inhibitory concentration C. albicans): 0.5 µg/mL (≈ 1.78 µM)
∆OD C. albicans [6]: 0.0

Nc1ccccc1C(=O)/C=C/c1ccc(OCc2ccccc2)cc1 [Compound 13, 2′-Amino-4-benzyloxychalcone]
∆OD F. linii [7]: 0.32
Lag-phase F. linii [7]: 16.0 h
∆OD A. niger [8]: 0.78
Lag-phase A. niger [8]: 21.5 h
∆OD E. coli [1]: 0.0
∆OD A. alternata [9]: 0.92
Lag-phase A. alternata [9]: 13.0 h
MIC ([5]; DSM1386, broth method, 48–72 h, read-out: Minimal inhibitory concentration C. albicans): 0.5 µg/mL (≈ 1.52 µM)
∆OD S. aureus [2]: 0
MIC [3]: 0.25 µg/mL (≈ 0.759 µM)
MIC [4]: 0.25 µg/mL (≈ 0.759 µM)

Nc1cccc(C(=O)/C=C/c2ccc(C(=O)O)cc2)c1 [Compound 8, 3′-Amino-4-carboxychalcone]
∆OD F. linii [7]: 0.45
Lag-phase F. linii [7]: 13.0 h
IC50 [10]: 31.5 ± 0.13 µg/mL (≈ 118 µM)
∆OD A. niger [8]: 1.11
Lag-phase A. niger [8]: 39.0 h
∆OD E. coli [1]: 0.0
∆OD A. alternata [9]: 1.14
Lag-phase A. alternata [9]: 26.0 h
∆OD S. aureus [2]: 0.0
MIC [3]: 0.125 µg/mL (≈ 0.468 µM)
MIC [4]: 0.125 µg/mL (≈ 0.468 µM)
IC50 at 48 h [11]: 15.9 ± 1.04 µg/mL (≈ 59.6 µM)
IC50 [12]: 27.44 ± 0.11 µg/mL (≈ 103 µM)
IC50 [13]: 12.3 ± 0.32 µg/mL (≈ 46.1 µM)
IC50 [14]: 9.22 ± 0.72 µg/mL (≈ 34.5 µM)
∆OD C. albicans [6]: 0.28
Lag-phase C. albicans [6]: 23.0 h

CCc1ccc(/C=C/C(=O)c2ccccc2N)cc1 [Compound 4, 2′-Amino-4-ethylchalcone]
∆OD F. linii [7]: 1.04
Lag-phase F. linii [7]: 7.5 h
IC50 [10]: 4.77 ± 0.37 µg/mL (≈ 19 µM)
∆OD A. niger [8]: 0.60
Lag-phase A. niger [8]: 30.0 h
melting point: 34 to 36 °C
∆OD E. coli [1]: 0.0
∆OD A. alternata [9]: 0.40
Lag-phase A. alternata [9]: 26.5 h
∆OD S. aureus [2]: 0.84
Lag-phase S. aureus [2]: 32.5 h
MIC [4]: 0.5 µg/mL (≈ 1.99 µM)
IC50 at 48 h [11]: 9.57 ± 0.52 µg/mL (≈ 38.1 µM)
IC50 [12]: 4.78 ± 0.19 µg/mL (≈ 19 µM)
IC50 [13]: 3.98 ± 0.03 µg/mL (≈ 15.8 µM)
IC50 [14]: 5.1 ± 0.65 µg/mL (≈ 20.3 µM)
∆OD C. albicans [6]: 0.98
Lag-phase C. albicans [6]: 6.0 h

Nc1cccc(C(=O)/C=C/c2ccc(OCc3ccccc3)cc2)c1 [Compound 14, 3′-Amino-4-benzyloxychalcone]
Lag-phase F. linii [7]: 6.0 h
Lag-phase A. niger [8]: 20.5 h
melting point: 115 to 120 °C
∆OD E. coli [1]: 0.0
Lag-phase A. alternata [9]: 12.0 h
Lag-phase S. aureus [2]: 33.5 h
MIC [4]: 0.0625 µg/mL (≈ 0.19 µM)
IC50 at 48 h [11]: 7.61 ± 0.43 µg/mL (≈ 23.1 µM)
IC50 [12]: 5.19 ± 0.41 µg/mL (≈ 15.8 µM)
IC50 [13]: 7.54 ± 0.18 µg/mL (≈ 22.9 µM)
IC50 [14]: 6.51 ± 0.62 µg/mL (≈ 19.8 µM)
Lag-phase C. albicans [6]: 4.5 h
